Assay results: patent EP0509752A2, “Ophthalmic compositions comprising combinations of a carbonic anhydrase inhibitor and a beta-adrenergic antagonist” (MERCK & CO. INC., priority 1991, dated 1992)

Test system: Patients with either ocular hypertension or primary open angle glaucoma
Experiment: Study of Compound I in combination with timolol: 12 hour diurnal IOP curve (Goldmann applanation tonometer)
Type: in vivo
Settings: 2% Compound I, 1 drop to each eye every 12 hours for seven days, ten minutes after timolol 0.5% bid, worse eye analysis, preliminary IOP data
Description: Study of (S,S)-(-)-5,6-dihydro-4-ethylamino-6-methyl-4H-thieno[2,3b]thiopyran-2-sulfonamide-7,7-dioxide (I) in combination with Timolol
Patients aged 40 or over, with either ocular hypertension or primary open angle glaucoma with an intraocular pressure (IOP) in one or both eyes of 22 mmHg or more at one time point each day while receiving timolol 0.5% twice a day (bid) alone were admitted to the study. Patients had been on timolol 0.5% bid, either alone or in combination for at least three weeks prior to study entry and had been on timolol 0.5% bid as their sole glaucoma therapy for at least two weeks prior to study admission.
Secondary glaucoma was an exclusion as was a history of glaucoma surgery or laser trabeculoplasty/gonioplasty. Patients for whom timolol was contraindicated by the datasheet were excluded and also excluded were those on a concurrent β-blocker, carbonic anhydrase inhibitor, or clonidine. […]
• 1. […] Patients were admitted for a 12 hour diurnal curve (i.e., IOP recorded at 08.00, 09.00, 10.00, 12.00, 14.00, 16.00, 18.00, 20.00 hours approximately, the 08.00 recording was immediately prior to instillation of the drops). All pressures were measured by the same observer using the same Goldmann applanation tonometer. • 3. […] On Day 2, the IOP of each patient was measured at 8 am and 9 am, and a 12 hour diurnal curve was recorded on Day 8. preliminary IOP data follow : […]

## CCN[C@H]1C[C@H](C)S(=O)(=O)c2sc(S(N)(=O)=O)cc21 [Compound I, (S,S)-(-)-5,6-dihydro-4-ethylamino-6-methyl-4H-thieno[2,3b]thiopyran-2-sulfonamide-7,7-dioxide]
  effect over the effect of timolol alone (percent change in IOP on Day 8 from prestudy): 13%-21%
